Results reported in US7745641B2, “Nitrogen-containing heterocyclic compound” (Kyowa Hakko Kirin Co., Ltd., priority 2005, dated 2010).

How the values were obtained:
leukemia-transplant mice = details: drugs that act on Flt-3; cited from earlier work
[1] = several evaluation models; drugs reported to act on FGFR; cited from earlier work
[2] = test system: human-tumor-transplant mouse models; details: cited from earlier work
human FGFR3 = molecular target: T1, human FGFR3 (Homo sapiens, UniProt P22607); assay: Fibroblast growth factor receptor 3 (FGFR3) inhibitory activity, time-resolved fluoroimmunoassay; format: biochemical; details: 10 μmol/L test compound
T1 construct: the intracellular domain (448-759 amino acids) of human FGFR3; made in house; host or cells: insect cells (baculovirus)
T1 sequence (P22607 448-759): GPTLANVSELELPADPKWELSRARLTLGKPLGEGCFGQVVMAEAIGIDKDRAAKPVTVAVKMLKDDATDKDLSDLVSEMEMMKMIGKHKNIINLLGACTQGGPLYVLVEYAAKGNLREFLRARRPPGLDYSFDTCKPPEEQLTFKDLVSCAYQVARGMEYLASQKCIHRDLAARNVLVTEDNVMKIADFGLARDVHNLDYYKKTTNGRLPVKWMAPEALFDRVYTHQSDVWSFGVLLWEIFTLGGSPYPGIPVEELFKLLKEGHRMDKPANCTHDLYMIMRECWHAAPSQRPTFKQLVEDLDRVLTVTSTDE
Description: In order to determine FGFR3 inhibitory activity, the following method was employed. FGFR3 was prepared by allowing baculovirus that expresses a protein in which glutathione S-transferase (GST) was fused to the N-terminal of the intracellular domain (448-759 amino acids) of human FGFR3 to infect insect cells. Biotinylated polyglutamic acid-tyrosine peptide (Nihon Schering K.K., Catalogue No. 61GT0BAA) used as a substrate was immobilized on a 96-well plate coated with NeutroAvidin (Pierce, Catalogue No. 31000) and was then blocked with 0.25% gelatin to yield a plate for the determination of kinase reaction A solution containing, at final concentrations, 8 μg/L GST-fused FGFR3 protein, 20 mmol/L Tris-Cl (pH 7.5), 0.04% 2-mercaptoethanol, 0.04 mmol/L Na3VO4, 20 mmol/L MgCl2, 5 mmol/L MnCl2, 10 mmol/L ATP, 0.1% bovine serum albumin (BSA; Sigma Corporation, Catalogue No. A4503), 0.1% dimethyl sulfoxide (DMSO), and 10 μmol/L test compound was prepared. Subsequently, 50 μL of the solution was placed in each of the wells of the plate for the determination of kinase reaction, followed by enzymatic reaction at 24° C. for 60 minutes. The plate was washed with TBS-T [10 mM Tris-Cl (pH 7.5), 150 mmol/L NaCl, and 0.05% Tween 20 (Bio-Rad Laboratories Inc., Catalogue No. 170-6531)] four times, and allowed to react with europium-labeled anti-phosphotyrosine antibody (PerkinElmer Inc. Catalogue No. AD0160) at room temperature for 60 minutes. The plate was further washed with TBS-T four times. Subsequently, DELFIA. Enhancement Solution (PerkinElmer Inc. Catalogue No. 1244-105) was added to the plate, and time-resolved fluoroimmunoassay was performed (excitation wavelength: 340 nm, measuring wavelength: 615 nm). The relative activity (%) of a well in which the test compound was added was calculated using the value of a well containing the enzyme and 0.1% DMSO being 100% and the value of a well not containing the enzyme being 0%. The FGFR3 inhibitory activity (%) of the test compound was determined by subtracting the relative activity (%) from 100.

Flt-3 = molecular target: T2, Flt-3 (Homo sapiens, UniProt P36888); assay: Flt-3 inhibitory activity, time-resolved fluoroimmunoassay; format: biochemical; details: 10 μmol/L test compound
T2 construct: His tag; purchased Upstate Inc. 14-500
T2 sequence (P36888 564-993 limits assumed): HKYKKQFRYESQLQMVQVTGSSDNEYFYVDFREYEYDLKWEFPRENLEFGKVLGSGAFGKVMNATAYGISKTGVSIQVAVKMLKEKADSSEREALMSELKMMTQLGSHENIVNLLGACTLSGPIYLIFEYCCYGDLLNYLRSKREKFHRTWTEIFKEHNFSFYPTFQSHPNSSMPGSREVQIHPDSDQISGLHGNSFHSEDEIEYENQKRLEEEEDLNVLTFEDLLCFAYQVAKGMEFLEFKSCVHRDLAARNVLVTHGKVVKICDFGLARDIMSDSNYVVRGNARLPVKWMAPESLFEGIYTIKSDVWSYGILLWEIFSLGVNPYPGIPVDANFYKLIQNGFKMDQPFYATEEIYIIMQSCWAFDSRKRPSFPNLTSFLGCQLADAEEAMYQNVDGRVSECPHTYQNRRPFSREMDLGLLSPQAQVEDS
Description: Flt-3 inhibitory activity was determined by a method described below.
Biotinylated polyglutamic acid-tyrosine peptide (Nihon Schering K.K., Catalogue No. 61GT0BAA) used as a substrate was immobilized on a 96-well plate (FIA-PLATE BLACK 96 well FALT-BOTTOM HIGH BINDING, Greiner Bio-one Co., Ltd., Catalogue No. 655077) coated with NeutroAvidin (Pierce, Catalogue No. 31000) and was then blocked with 0.25% gelatin to yield a plate for the determination of kinase reaction. A solution containing, at final concentrations, 8 μg/L His-tagged protein-fused Flt-3 (Upstate Inc., Catalogue No. 14-500), 20 mmol/L Tris-Cl (pH 7.5), 0.04% 2-mercaptoethanol, 0.04 mmol/L Na3VO4, 20 mmol/L MgCl2, 5 mmol/L MnCl2, 10 μmol/L ATP, 0.1% BSA, 0.1% DMSO, and […] test compound was prepared. Subsequently, 50 μL of the solution was placed in each of the wells of the plate for the determination of kinase reaction, followed by enzymatic reaction at 24° C. for 60 minutes. The plate was washed with TBS-T [10 mmol/L Tris-Cl (pH 7.5), 150 mmol/L NaCl, and 0.05% Tween 20 (Bio-Rad Laboratories Inc., Catalogue No. 170-6531)] four times, and allowed to react with europium-labeled anti-phosphotyrosine antibody (PerkinElmer Inc. Catalogue No. AD0160) at room temperature for 60 minutes. The plate was further washed with TBS-T four times. Subsequently, time-resolved fluoroimmunoassay was performed (excitation wavelength: 340 nm, measuring wavelength: 615 nm). The relative activity (%) of a well to which the enzyme and the test compound were added was calculated using the value of a well to which the test compound was not added being 100% and the value of a well to which the enzyme and the test compound were not added being 0%. The Flt-3 inhibitory activity (%) of the test compound was determined by subtracting the relative activity (%) from 100.

HCT116 cells = assay: Evaluation of Aurora inhibitory activity by analysis of nuclear morphology (enlarged lobed nuclei); format: cell-based, human; details: concentration in the range of 0.1 to 1 μmol/L, 17 hours contact; optimal concentration different in each compound
Description: 281 (2003)]. Consequently, enlarged lobed nuclei-inducibility of test compounds for HCT116 cells was evaluated. McCoy's 5A culture medium (GIBCO, Catalogue No. 16600-082) containing 10% bovine fetus serum (GIBCO, Catalogue No. 10099-141) was used for the cultivation of the cells. HCT116 cells were inoculated and, 24 hours later, each test compound was added thereto.

Aurora = Aurora inhibitory activity using Western blotting method (phosphorylation of histone H3 Ser10); format: cell-based, human; details: 10 μmol/L, 30 minutes, HCT116 cells accumulated in M phase with Nocodazole
Source text: It is known that Aurora phosphorylates Ser10 of histone H3 in the G2/M phase during the cell cycle [Molecular and Cellular Biology, Vol. 22, p. 874 (2002)]. Consequently, the inhibition of phosphorylation of histone H3 Ser10 in cells was detected by a Western blotting method using human colon cancer cell line HCT116 cells accumulated in the M phase. McCoy's 5A culture medium (GIBCO, Catalogue No. 16600-082) containing 10% bovine fetus serum (GIBCO, Catalogue No. 10099-141) was used for the cultivation of the cells. The HCT116 cells were inoculated and then treated with Nocodazole (Sigma Corporation, Catalogue No. M-1404) so that the cell cycle was accumulated to the M phase. A test compound (final concentration: 10 μmol/L) was added thereto, and the cells were incubated at 37° C. for 30 minutes. The cells were then recovered and washed with a phosphate buffered saline (PBS) once. The cells were suspended in a cell-solubilizing solution (50 mmol/L 2-[4-(2-hydroxyethyl)-1-piperazinyl]ethanesulfonic acid (HEPES) (pH 7.4), 150 mmol/L NaCl, 1 mmol/L ethylenediamine-N,N,N′,N′-tetraacetic acid disodium salt dihydrate (EDTA), 2.5 mmol/L ethylene glycol bis(2-aminoethylether)-N,N,N′,N′-tetraacetic acid (EGTA), 0.1% Tween-20 (Bio-Rad Laboratories Inc., Catalogue No. 170-6531), 10% β-glycerophosphate, 1 mmol/L NaF, 0.1 mmol/L Na3VO4, 1 mmol/L Pefabloc SC (Roche Diagnostics K.K., Catalogue No. 1 429 868), and Complete EDTA-free (Roche Diagnostics K.K., Catalogue No. 1 873 580)}, and the suspension was frozen and thawed. Subsequently, the supernatant obtained by centrifugal separation was used as a cell extraction solution. SDS-PAGE was performed using a 12.5% polyacrylamide gel under the condition that the amount of protein per sample was 30 μg in accordance with the method used by Laemmli et al. The protein was transferred onto a PVDF membrane (Millipore Corporation, Catalogue No. IPVH304F0) by a semi-dry method. The membrane was allowed to react with anti-phosphorylated histone H3 Ser10 antibody (Upstate Inc., Catalogue No. 06-570) used as a primary antibody, and an HRP-labeled anti-rabbit IgG antibody (Amersham biosciences, Catalogue No. NA934V) used as a secondary antibody. Subsequently, […] was detected using a SuperSignal West Pico chemiluminescence substrate (Pierce, Catalogue No. 34077).

Molecule: COc1cc2c(N3CCN(C(=O)Nc4ccc(OC(C)C)cc4)CC3)ncnc2cc1OCCCN1CCCCC1 [CT53518]
- antitumor activity (leukemia-transplant mice): exhibit an antitumor activity

Molecule: CCN(CC)CCCCNc1ncc2cc(-c3cc(OC)cc(OC)c3)c(NC(=O)NC(C)(C)C)nc2n1 [PD173074]
- antitumor activity [1]: exhibit an antitumor activity

Molecule: Nc1nc(Nc2ccc(S(N)(=O)=O)cc2)nn1C(=O)c1c(F)cccc1F [JNJ-7706621]
- antitumor activity [2]: exhibits an antitumor activity

Molecule: CN1CCN(c2ccc3nc(-c4c(N)c5c(F)cccc5[nH]c4=O)[nH]c3c2)CC1 [CHIR-258]
- antitumor activity [1]: exhibit an antitumor activity
- antitumor activity (leukemia-transplant mice): exhibit an antitumor activity

Molecule: COc1cc(-c2cc3cc(CN4CCCC4)ccc3[nH]2)c2c(c1OS(C)(=O)=O)CNC2=O [Compound 366, 4-Methanesulfonyloxy-5-methoxy-7-[1H-5-(pyrrolidin-1-ylmethyl)indol-2-yl]isoindolinone]
- inhibition at 10 µM (human FGFR3): ≥ 50%
- inhibition at 10 µM (Flt-3): ≥ 50%
- ability of inducing enlarged lobed nuclei for HCT116 cells (HCT116 cells): show ability of inducing enlarged lobed nuclei
- suppression of the phosphorylation of histone H3 Ser10 in HCT116 cells (Aurora): almost completely suppressed
- melting point: 187 to 189 °C

Molecule: Cc1c[nH]c(/C=C2\C(=O)Nc3ccccc32)c1CCC(=O)O [SU5402]
- antitumor activity [1]: exhibit an antitumor activity

Molecule: C[C@]12O[C@H](C[C@]1(O)CO)n1c3ccccc3c3c4c(c5c6ccccc6n2c5c31)CNC4=O [CEP-701]
- antitumor activity (leukemia-transplant mice): exhibit an antitumor activity

Molecule: CO[C@@H]1[C@H](N(C)C(=O)c2ccccc2)C[C@H]2O[C@]1(C)n1c3ccccc3c3c4c(c5c6ccccc6n2c5c31)C(=O)NC4 [PKC412]
- antitumor activity [1]: exhibit an antitumor activity
- antitumor activity (leukemia-transplant mice): exhibit an antitumor activity

Molecule: BIBF1000
- antitumor activity [1]: exhibit an antitumor activity

Molecule: COCCN(C)Cc1ccc2[nH]c(-c3cc(OC)c(OS(C)(=O)=O)c4c3C(=O)NC4)cc2c1 [Compound 455, 4-Methanesulfonyloxy-5-methoxy-7-{1H-5-[N-(2-methoxyethyl)methylaminomethyl]indol-2-yl}isoindolinone]
- inhibition at 10 µM (human FGFR3): ≥ 50%
- inhibition at 10 µM (Flt-3): ≥ 50%
- ability of inducing enlarged lobed nuclei for HCT116 cells (HCT116 cells): show ability of inducing enlarged lobed nuclei
- suppression of the phosphorylation of histone H3 Ser10 in HCT116 cells (Aurora): almost completely suppressed
- melting point: 197 to 199 °C

Molecule: COc1cc(-c2cc3cc(CN(C)C)ccc3[nH]2)c2c(c1OS(C)(=O)=O)CNC2=O [Compound 362, 4-Methanesulfonyloxy-5-methoxy-7-[1H-5-(dimethylaminomethyl)indol-2-yl]isoindolinone]
- inhibition at 10 µM (human FGFR3): ≥ 50%
- inhibition at 10 µM (Flt-3): ≥ 50%
- ability of inducing enlarged lobed nuclei for HCT116 cells (HCT116 cells): show ability of inducing enlarged lobed nuclei
- suppression of the phosphorylation of histone H3 Ser10 in HCT116 cells (Aurora): almost completely suppressed
- melting point: 232 to 234 °C

Molecule: COc1cc(-c2cc3cc(CNC4CCCCC4)ccc3[nH]2)c2c(c1OS(C)(=O)=O)CNC2=O [Compound 365, 4-Methanesulfonyloxy-5-methoxy-7-[1H-5-(cyclohexylaminomethyl)indol-2-yl]isoindolinone]
- melting point: 196 to 199 °C

Molecule: CCN(CC)CCNC(=O)c1c(C)[nH]c(/C=C2\C(=O)Nc3ccc(F)cc32)c1C [SU11248]
- antitumor activity (leukemia-transplant mice): exhibit an antitumor activity

Molecule: O=C1NCc2c(Cl)ccc(-c3cc4cc(C(=O)N5CCN(CCOCCO)CC5)ccc4[nH]3)c21 [Compound 109, 4-Chloro-7-{1H-5-[4-(2-(2-hydroxyethoxy)ethyl)piperazin-1-ylcarbonyl]indol-2-yl}isoindolinone]
- melting point: 255 °C

Molecule: COCCNCc1ccc2[nH]c(-c3cc(OC)c(OS(C)(=O)=O)c4c3C(=O)NC4)cc2c1 [Compound 374, 4-Methanesulfonyloxy-5-methoxy-7-[1H-5-(2-methoxyethylaminomethyl)indol-2-yl]isoindolinone]
- inhibition at 10 µM (human FGFR3): ≥ 50%
- inhibition at 10 µM (Flt-3): ≥ 50%
- ability of inducing enlarged lobed nuclei for HCT116 cells (HCT116 cells): show ability of inducing enlarged lobed nuclei
- suppression of the phosphorylation of histone H3 Ser10 in HCT116 cells (Aurora): almost completely suppressed
- melting point: 188 to 190 °C
